Like-named read-outs stand apart in the source and are kept apart here.
Key:
[1] = cited from earlier work
[2] = Oral pharmacokinetics of naratriptan in rats, alone or combined with an absorption enhancer carrier; type: in vivo, Sprague-Dawley rats; conditions: Nar 10 mg/kg, carrier 200 mg/kg
Experimental: In the present invention, the delivery system is the pharmaceutical formulations which may be in the form of a liquid or solid. Liquid formulations may be water-based. The absorption enhancer was dissolved in deionized water. 10 N NaOH solution was used to help dissolving acid form carriers. HCl was added to lower pH of the absorption enhancer stock solution if the pH was higher than 7.4. Naratriptan powder was added to the absorption enhancer solution 5 minutes before dosing. The final concentration of drug was 10 mg/ml, and the final concentration of carrier was 200 mg/ml for the study.
Naratriptan is also designated Nar. Naratriptan was administered alone to rates orally as a control. For oral dosing, single solutions were administrated at time 0, in the following manner: (a) each absorption enhancer carrier (200 mg/kg) in combination with Nar (10 mg/kg) was administered orally to rats; and (b) Nar (10 mg/kg) alone was administered orally to rats. Blood samples were collected by retro-orbital bleed under CO2 anesthesia pre-dosing (0 minute), and 5, 15, 30, 40, 50, 60, 120 and 240 minutes after dosing. […] Both, the Nar/2-HPOD and Nar/2-HPHM combination took approximately ½ the time of Naratriptan alone. […] Also the mean Cmax value of the Nar/4-PPED combination was approximately 2-fold higher compared to that obtained following Naratriptan alone.

[3] = Sprague-Dawley, rat, naratriptan in plasma, fasted male rats, single oral dose, n=5

time of mean peak Naratriptan plasma concentration post-dose ([2]; Example 1, rats, oral): 27 min | Cmax [2, 3]: 1050 ng/mL | Tmax [2, 3]: 27 min | AU Clast ([2]; naratriptan in plasma, fasted male rats, single oral dose, n=5): 62851 ng·min/mL
Structure (SMILES): CNS(=O)(=O)CCc1ccc2[nH]cc(C3CCN(C)CC3)c2c1 [Naratriptan]
time to peak concentrations ([1]; 2.5 mg tablet orally): 2 to 3 h | Tmax ([1]; during a migraine attack): 180 to 240 min | oral bioavailability ([1]; naratriptan tablets): about 70%
